Counter-ions that a name gives are not always drawn. Like-named read-outs stand apart in the source and are kept apart here.
Key:
[1] = target: T1, Orexin receptor 1 (Homo sapiens, UniProt O43613); test: biochemical; conditions: for nH (Hill coefficient): human orexin receptor 1 binding
T1 sequence (O43613 1-425): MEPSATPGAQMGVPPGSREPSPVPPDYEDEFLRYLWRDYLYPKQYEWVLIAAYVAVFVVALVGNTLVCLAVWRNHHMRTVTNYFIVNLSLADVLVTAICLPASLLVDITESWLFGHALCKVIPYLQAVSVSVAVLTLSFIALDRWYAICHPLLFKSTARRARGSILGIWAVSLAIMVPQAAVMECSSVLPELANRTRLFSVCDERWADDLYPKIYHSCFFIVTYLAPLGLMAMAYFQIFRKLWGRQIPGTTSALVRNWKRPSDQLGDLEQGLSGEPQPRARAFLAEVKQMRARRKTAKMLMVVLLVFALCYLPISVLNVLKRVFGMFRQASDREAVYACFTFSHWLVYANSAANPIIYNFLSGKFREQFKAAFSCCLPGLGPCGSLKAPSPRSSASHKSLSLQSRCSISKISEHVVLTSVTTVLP
Procedure: (§1) Binding activity was evaluated to assess the selectivity of verapamil on various receptors. The binding activity of the reported receptors was analyzed using the following known methods. Primary screening were performed in duplicate and presented in semi-quantitative data (e.g., IC50, Ki and nH). Where presented, IC50 values were determined by a non-linear, least squares regression analysis using MathIQ™ (ID Bussiness Solutions Ltd., UK). […] Where presented, the Hill coefficient (nH), defining the slope of the competitive binding curve, was calculated using MathIQ™.
(§2) Orexin receptor 1 or 2 binding affinity was examined using the methods disclosed by Kukkonen et al., (2002) Am J Physiol Cell Physiol. 283:C1567-C1591; and Langmead et al., (2004) Br J Pharmacol. 141(2):340-346. […] Pharmacol. 58:254-264; and Spedding. (1984) M. Eur J Pharmacol. 83:211. Somaostatin receptor 2 binding activity was estimated by the method described by Feniuk et al., (1993) Br J Pharmacol. 110:1156-1164. Adenosine receptor binding activity was examined using the method described by Varani et al., (1996) Br J Pharmacol. 117:1693-1701. Bradykinin receptor binding activity was examined using the methods described by Horlick et al., (1999) Immunopharmacology 43(2-3):169-177; and Phagoo et al., (2001) J Pharmacol Exp Ther 298(1):77-85. Calcium channel (N-type) binding activity was examined using the method disclosed by Moresco et al., (1990) Neurobiol of Aging. 11(4):433-436. Cannabinoid receptor binding activity was examined using the method disclosed by Reggio et al., (1998) J Med Chem 41(26):5177-5187. […] Estrogen receptors (including ERα and ERβ) were examined using the method disclosed by Obourn et al., (1993) Biochem 32:6229-6236. GABA receptor (including GABAA and GABAB1A,) binding activity was examined using methods disclosed by Lewin et al., (1989) Mol Pharmacol 35:189-194; Maksay G. (1993) Eur J Pharmacol 246:255-260; Enna and Snyder, (1977) Mol Pharmacol. 13:442-453; Martini et al., (1983) J Neurochem. […] Leptin receptor binding activity was examined using the method disclosed by Fong et al., (1998) Mol Pharmacol 53:234-240. […] 75(6):2590-2601. Tachykinin receptor binding activity was examined using the method disclosed by Patacchini and Maggi, (1995) Arch Int Pharmacodyn. 329:161-184. Vanilloid receptor binding activity was examined using the methods disclosed by Szallasi et al., (1993) J Pharmacol Exp Ther. 267(2):728-733. Melatonin receptor binding activity was examined using the methods disclosed by Beresford et al., (1998) J Pharmacol Exp Ther 285(3):1239-1245; and Paul et al., (1999) J Pharmacol Exp Ther 290(1):334-340. Serotonin receptor binding activity was examined using the methods disclosed by Bonhaus et al., (1995) Br J Pharmacol 115:622-628; and Saucier and Albert (1997) J. Neuorchem 68:1998-2011.

[2] = target: T2, Orexin receptor 2 (Homo sapiens, UniProt O43614); test: biochemical; conditions: for nH (Hill coefficient): human orexin receptor 2 binding
T2 sequence (O43614 1-444): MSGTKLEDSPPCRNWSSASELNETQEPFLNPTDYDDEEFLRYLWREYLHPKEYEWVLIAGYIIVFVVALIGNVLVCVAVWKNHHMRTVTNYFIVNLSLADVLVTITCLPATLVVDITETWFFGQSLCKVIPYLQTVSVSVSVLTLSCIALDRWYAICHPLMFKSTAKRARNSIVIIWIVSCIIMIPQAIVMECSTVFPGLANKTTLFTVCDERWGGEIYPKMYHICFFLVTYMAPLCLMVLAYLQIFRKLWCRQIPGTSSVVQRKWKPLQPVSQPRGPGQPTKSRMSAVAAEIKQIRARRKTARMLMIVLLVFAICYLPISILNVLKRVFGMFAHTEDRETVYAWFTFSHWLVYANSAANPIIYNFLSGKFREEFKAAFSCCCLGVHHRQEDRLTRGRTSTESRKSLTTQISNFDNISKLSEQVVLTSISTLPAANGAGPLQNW
Procedure: as §1, §2

[3] = system: Sodium Channel, Site 2; test: Sodium channel, site 2 binding assay; parameters: species or system rat
[4] = target: Somatostatin receptor 2 (Cavia porcellus, UniProt A0A286XKC5); test: Somatostatin tissue assay; conditions: guinea pig tissue
Text: (§3) Orexin receptor 1 or 2 binding affinity was examined using the methods disclosed by Kukkonen et al., (2002) Am J Physiol Cell Physiol. 283:C1567-C1591; and Langmead et al., (2004) Br J Pharmacol. 141(2):340-346. […] Pharmacol. 58:254-264; and Spedding. (1984) M. Eur J Pharmacol. 83:211. Somaostatin receptor 2 binding activity was estimated by the method described by Feniuk et al., (1993) Br J Pharmacol. 110:1156-1164. Adenosine receptor binding activity was examined using the method described by Varani et al., (1996) Br J Pharmacol. 117:1693-1701. Bradykinin receptor binding activity was examined using the methods described by Horlick et al., (1999) Immunopharmacology 43(2-3):169-177; and Phagoo et al., (2001) J Pharmacol Exp Ther 298(1):77-85. Calcium channel (N-type) binding activity was examined using the method disclosed by Moresco et al., (1990) Neurobiol of Aging. 11(4):433-436. Cannabinoid receptor binding activity was examined using the method disclosed by Reggio et al., (1998) J Med Chem 41(26):5177-5187. […] Estrogen receptors (including ERα and ERβ) were examined using the method disclosed by Obourn et al., (1993) Biochem 32:6229-6236. […]

[5] = target: Dopamine D2L receptor (Homo sapiens, UniProt P14416)
Text: as §3

[6] = target: N-type calcium channel (Rattus norvegicus, UniProt Q02294); test: Calcium channel (N-type) binding activity; conditions: data not shown
Text: (§4) Pharmacol. 58:254-264; and Spedding. (1984) M. Eur J Pharmacol. 83:211. […] 11(4):433-436. […] 75(6):2590-2601. […] 329:161-184.

[7] = system: Serotonin receptor; conditions: data not shown
Procedure: as §1
Orexin receptor 1 or 2 binding affinity was examined using the methods disclosed by Kukkonen et al., (2002) Am J Physiol Cell Physiol. 283:C1567-C1591; and Langmead et al., (2004) Br J Pharmacol. 141(2):340-346. […] Pharmacol. 58:254-264; and Spedding. (1984) M. Eur J Pharmacol. 83:211. Somaostatin receptor 2 binding activity was estimated by the method described by Feniuk et al., (1993) Br J Pharmacol. 110:1156-1164. Adenosine receptor binding activity was examined using the method described by Varani et al., (1996) Br J Pharmacol. 117:1693-1701. Bradykinin receptor binding activity was examined using the methods described by Horlick et al., (1999) Immunopharmacology 43(2-3):169-177; and Phagoo et al., (2001) J Pharmacol Exp Ther 298(1):77-85. […]

[8] = system: Melatonin receptor; test: Melatonin receptor binding activity; conditions: data not shown
Text: as §4

Sequence of Somatostatin receptor 2 (A0A286XKC5 1-368): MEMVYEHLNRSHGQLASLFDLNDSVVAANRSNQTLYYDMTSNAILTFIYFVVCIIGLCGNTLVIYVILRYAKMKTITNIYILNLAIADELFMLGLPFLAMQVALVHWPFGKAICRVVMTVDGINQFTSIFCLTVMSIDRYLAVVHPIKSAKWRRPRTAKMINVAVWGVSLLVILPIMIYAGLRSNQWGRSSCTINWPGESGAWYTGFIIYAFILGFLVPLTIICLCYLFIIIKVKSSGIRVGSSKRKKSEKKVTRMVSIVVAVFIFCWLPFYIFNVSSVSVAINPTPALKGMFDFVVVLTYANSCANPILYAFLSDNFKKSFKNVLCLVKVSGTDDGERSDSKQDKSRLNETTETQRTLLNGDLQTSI
Sequence of Dopamine D2L receptor (P14416 whole entry): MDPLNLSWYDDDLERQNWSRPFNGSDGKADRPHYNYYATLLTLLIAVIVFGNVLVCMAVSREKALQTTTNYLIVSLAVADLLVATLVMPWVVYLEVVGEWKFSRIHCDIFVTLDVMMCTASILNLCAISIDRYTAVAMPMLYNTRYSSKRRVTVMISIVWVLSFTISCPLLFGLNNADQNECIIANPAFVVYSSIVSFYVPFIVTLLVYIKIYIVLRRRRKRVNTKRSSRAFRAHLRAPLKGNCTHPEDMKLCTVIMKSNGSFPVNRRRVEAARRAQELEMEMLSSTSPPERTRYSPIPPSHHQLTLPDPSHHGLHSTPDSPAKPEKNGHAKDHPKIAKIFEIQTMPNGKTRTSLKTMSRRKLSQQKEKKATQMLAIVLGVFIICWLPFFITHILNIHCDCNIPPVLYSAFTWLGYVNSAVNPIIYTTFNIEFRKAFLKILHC
Sequence of N-type calcium channel (P54287 whole entry): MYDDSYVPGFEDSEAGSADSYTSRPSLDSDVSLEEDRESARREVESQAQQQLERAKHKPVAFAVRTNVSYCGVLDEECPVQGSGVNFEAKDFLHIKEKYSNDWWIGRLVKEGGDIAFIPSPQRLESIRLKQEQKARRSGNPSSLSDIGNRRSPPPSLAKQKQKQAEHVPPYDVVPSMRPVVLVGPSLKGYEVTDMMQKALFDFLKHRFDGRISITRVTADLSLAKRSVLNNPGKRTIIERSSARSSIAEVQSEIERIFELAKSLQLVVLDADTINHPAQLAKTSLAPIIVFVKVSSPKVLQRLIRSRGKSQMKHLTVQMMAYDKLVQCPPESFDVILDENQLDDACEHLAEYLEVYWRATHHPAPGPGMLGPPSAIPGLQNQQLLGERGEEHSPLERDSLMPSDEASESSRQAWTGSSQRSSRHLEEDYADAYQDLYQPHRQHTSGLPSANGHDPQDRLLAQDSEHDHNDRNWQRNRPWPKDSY
Sequence of N-type calcium channel (P54290 945-1091, further chain): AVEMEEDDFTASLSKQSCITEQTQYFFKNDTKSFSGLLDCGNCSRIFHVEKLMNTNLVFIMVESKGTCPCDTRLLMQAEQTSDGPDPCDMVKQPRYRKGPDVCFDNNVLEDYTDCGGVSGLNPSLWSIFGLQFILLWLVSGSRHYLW
Sequence of N-type calcium channel (Q02294 whole entry): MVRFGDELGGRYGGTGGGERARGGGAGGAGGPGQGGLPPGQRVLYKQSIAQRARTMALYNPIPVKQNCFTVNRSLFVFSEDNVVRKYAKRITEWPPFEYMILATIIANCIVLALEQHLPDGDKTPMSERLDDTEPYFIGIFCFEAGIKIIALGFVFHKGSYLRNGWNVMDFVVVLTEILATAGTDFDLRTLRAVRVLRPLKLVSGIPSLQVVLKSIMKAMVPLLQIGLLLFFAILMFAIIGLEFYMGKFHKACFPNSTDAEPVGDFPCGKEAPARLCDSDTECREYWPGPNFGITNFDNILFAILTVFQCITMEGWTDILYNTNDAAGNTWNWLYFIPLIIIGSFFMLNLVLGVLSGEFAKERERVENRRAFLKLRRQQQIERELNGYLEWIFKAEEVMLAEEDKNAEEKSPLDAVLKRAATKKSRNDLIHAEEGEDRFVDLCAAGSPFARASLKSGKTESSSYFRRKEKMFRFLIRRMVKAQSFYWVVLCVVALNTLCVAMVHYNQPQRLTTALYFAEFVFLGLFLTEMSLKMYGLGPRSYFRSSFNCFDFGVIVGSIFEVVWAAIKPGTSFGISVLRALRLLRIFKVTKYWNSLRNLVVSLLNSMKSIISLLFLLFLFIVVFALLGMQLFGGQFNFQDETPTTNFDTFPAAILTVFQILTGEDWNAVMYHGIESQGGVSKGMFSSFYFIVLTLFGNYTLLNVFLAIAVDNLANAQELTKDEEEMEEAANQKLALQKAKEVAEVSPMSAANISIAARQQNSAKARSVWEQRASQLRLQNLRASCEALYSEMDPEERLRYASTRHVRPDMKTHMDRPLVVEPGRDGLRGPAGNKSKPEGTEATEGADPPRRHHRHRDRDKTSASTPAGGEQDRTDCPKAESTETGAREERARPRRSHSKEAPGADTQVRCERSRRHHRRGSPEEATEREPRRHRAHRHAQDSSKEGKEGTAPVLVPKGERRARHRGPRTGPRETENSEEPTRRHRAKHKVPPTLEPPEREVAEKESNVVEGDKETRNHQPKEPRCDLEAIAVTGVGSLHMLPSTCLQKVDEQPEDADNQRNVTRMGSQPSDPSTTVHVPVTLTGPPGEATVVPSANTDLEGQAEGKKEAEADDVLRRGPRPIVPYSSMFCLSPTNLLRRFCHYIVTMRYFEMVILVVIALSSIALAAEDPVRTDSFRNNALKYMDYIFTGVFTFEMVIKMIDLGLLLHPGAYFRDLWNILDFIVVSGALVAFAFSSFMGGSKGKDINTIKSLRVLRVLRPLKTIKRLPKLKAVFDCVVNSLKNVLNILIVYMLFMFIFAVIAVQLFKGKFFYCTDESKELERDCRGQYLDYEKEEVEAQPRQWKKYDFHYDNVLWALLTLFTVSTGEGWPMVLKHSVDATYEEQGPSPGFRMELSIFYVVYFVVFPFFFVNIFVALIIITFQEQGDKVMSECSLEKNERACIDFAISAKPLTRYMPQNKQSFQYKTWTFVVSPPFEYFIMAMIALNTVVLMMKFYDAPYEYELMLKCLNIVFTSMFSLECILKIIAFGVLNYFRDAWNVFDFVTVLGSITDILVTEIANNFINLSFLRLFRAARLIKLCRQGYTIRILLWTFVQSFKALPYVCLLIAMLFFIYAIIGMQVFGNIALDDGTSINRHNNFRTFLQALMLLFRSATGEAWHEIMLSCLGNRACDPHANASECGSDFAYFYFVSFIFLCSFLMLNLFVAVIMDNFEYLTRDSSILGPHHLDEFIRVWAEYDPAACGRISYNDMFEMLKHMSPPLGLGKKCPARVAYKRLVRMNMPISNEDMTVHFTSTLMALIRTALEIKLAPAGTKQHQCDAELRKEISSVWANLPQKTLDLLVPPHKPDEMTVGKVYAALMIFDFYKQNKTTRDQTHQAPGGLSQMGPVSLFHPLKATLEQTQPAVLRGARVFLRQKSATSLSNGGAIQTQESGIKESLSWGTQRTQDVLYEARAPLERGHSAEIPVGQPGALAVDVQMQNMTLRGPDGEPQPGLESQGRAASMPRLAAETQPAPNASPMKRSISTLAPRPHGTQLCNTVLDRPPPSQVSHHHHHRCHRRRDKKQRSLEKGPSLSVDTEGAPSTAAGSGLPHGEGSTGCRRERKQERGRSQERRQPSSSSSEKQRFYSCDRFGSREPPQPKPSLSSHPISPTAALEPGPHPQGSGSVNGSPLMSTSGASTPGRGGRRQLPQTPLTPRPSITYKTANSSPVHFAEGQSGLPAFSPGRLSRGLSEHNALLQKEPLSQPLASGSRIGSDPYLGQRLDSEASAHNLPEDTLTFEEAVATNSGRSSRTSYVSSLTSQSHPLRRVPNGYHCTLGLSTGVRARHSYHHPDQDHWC
Sequence of N-type calcium channel (P54290 25-944, further chain): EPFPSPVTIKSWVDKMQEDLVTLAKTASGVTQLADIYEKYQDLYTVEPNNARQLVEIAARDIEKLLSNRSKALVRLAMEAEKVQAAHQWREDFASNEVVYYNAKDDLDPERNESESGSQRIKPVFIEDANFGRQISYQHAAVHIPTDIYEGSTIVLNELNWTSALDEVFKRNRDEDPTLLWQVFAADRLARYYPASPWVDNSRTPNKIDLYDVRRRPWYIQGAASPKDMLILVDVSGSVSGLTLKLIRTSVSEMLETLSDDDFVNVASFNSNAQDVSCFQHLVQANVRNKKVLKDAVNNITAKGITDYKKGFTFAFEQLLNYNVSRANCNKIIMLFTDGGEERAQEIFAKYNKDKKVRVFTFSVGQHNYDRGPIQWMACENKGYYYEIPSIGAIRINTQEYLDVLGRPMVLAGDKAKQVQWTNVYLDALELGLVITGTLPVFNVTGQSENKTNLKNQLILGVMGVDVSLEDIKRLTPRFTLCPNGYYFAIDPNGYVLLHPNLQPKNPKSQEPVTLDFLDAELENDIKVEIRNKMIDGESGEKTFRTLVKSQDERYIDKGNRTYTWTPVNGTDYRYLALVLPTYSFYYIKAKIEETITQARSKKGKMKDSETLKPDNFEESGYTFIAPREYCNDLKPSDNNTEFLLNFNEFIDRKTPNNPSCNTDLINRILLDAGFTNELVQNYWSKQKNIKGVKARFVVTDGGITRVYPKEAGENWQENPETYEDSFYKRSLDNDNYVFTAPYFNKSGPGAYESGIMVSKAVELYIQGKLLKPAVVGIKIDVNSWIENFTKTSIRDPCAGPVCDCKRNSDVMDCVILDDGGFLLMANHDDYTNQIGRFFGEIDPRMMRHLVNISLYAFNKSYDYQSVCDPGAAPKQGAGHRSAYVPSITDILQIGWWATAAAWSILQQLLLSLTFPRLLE

Compound | inhibition at 300 µM [1] | nH (Hill coefficient) [1] | inhibition at 100 µM [2] | nH (Hill coefficient) [2] | % Inhibition ([3]; rat sodium channel site 2, conc. 10 μM) | AG. (%) (agonist) ([4]; conc. 3 μM) | ANT. (%) (antagonist) ([5]; conc. 10 μM) | binding (in words) [6] | binding (in words) [7] | binding (in words) [8] | inhibition at 100 µM [1] | % Inhibition ([3]; rat sodium channel site 2, conc. 3 μM) | AG. (%) (agonist) ([4]; conc. 0.3 μM) | ANT. (%) (antagonist) ([5]; conc. 3 μM)
COc1ccc(CCN(C)CCC[C@](C#N)(c2ccc(OC)c(OC)c2)C(C)C)cc1OC [(R)-(+)-verapamil hydrochloride] | 57% | 1.31 | 56% | 1.81 | 72% | 69% | 58% | significant binding | significant binding | significant binding | – | – | – | –
COc1ccc(CCN(C)CCC[C@@](C#N)(c2ccc(OC)c(OC)c2)C(C)C)cc1OC [(S)-(−)-verapamil hydrochloride] | – | 1.27 | 79% | 1.33 | – | – | – | significant binding | significant binding | significant binding | 58% | 75% | 61% | 66%

From US20130210911A1, “METHOD AND COMPOSITION FOR TREATING A DISEASE OR CONDITION RELATED TO OREXIN RECEPTOR 1, OREXIN RECEPTOR 2, SOMATOSTATIN RECEPTOR 2 OR DOPAMINE D2L RECEPTOR” (CENTER LABORATORIES, INC., priority 2009, published 2013)
